Literature values as cited in US6034286A, “Processes for producing saturated alcohols” (Union Carbide Chemicals & Plastics Technology Corporation, priority 1997, dated 2000).

Legend:
[1] = Table I, organophosphorus ligand
[2] = Table II, promoter; approximate values

SMILES	pKb [1]	pKa [2]
c1ccc(P(c2ccccc2)c2ccccc2)cc1 [Triphenylphosphine]	2.74	
N#CCC#N [CNCH2 CN]		11
